Assay results published in patent US12220410B2, “Antitumor composition” (priority 2019, dated 2025).
Where two headings read alike, the source gives them in different places.

Experiments:
[1] = tested on: human diffuse large B-cell lymphoma cell line OCI-Ly7; assay type: in vivo; details: for Tumor growth delay / Tumor growth delay rate: relative tumor volume 1600%
[2] = tested on: human acute myelogenous leukemia (AML) cell line KG-1; assay type: in vivo
[3] = tested on: human follicular lymphoma cell line DOHH-2; test: In vitro cell growth inhibition test (CellTiter-Fluor), DOHH-2; assay type: cell-based; details: DOHH-2
[4] = tested on: human acute myelogenous leukemia (AML) cell line KG-1; assay type: in vivo; remark: listed apart in the source
[5] = tested on: human diffuse large B-cell lymphoma (DLBCL) cell line OCI-Ly7; test: In vitro cell growth inhibition test, OCI-Ly7 (cell viability, combination index); assay type: cell-based; details: bendamustine 0 nM
[6] = tested on: human diffuse large B-cell lymphoma cell line OCI-Ly7; set-up: species or system SCID mice; details: mouse, in vivo
[7] = tested on: human diffuse large B-cell lymphoma cell line OCI-Ly7; assay type: in vivo
[8] = tested on: human breast cancer cell line MDA-MB-453; test: In vivo antitumor effect test, MDA-MB-453 tumor, compound A and lapatinib (Example 37); set-up: species or system NOD-SCID mice; details: for Tumor growth delay / Tumor growth delay rate: relative tumor volume 200%
Procedure: The tumor volume was calculated from tumor diameters by the following formula: (Long diameter×[Short diameter]^2×0.5). Using the calculated tumor volume value, the relative tumor volume (ratio of the tumor volume on the day of measurement to the baseline tumor volume on Day 1) was calculated. […] Further, the tumor growth delay rate (% TGD) was calculated according to the following formula: % TGD={(T−C)/C}×100, Where: • T: […] relative tumor volume of the control group to reach 1600% 6) Statistical Analysis
Compound A was suspended in a 1% hypromellose solution to prepare 20 mg/mL test substance suspensions (a suspension for preparing a single administration solution and a suspension for preparing a 100 mg/kg combined administration solution). The 20 mg/mL test substance suspensions were diluted with a 1% hypromellose solution to prepare 10 mg/mL (100 mg/kg administration solution), 6 mg/mL (suspension for preparing a 30 mg/kg combined administration solution), and 3 mg/mL (30 mg/kg administration solution) test substance suspensions. Lapatinib was suspended in a 1% hypromellose solution to prepare a 20 mg/mL suspension for preparing a 100 mg/kg lapatinib combined administration solution. The 20 mg/mL suspension was diluted with a 1% hypromellose solution to prepare a 10 mg/mL suspension for 100 mg/kg single administration. The administration solution of the combination group was prepared by mixing the 6 mg/mL compound A suspension and the 20 mg/mL lapatinib suspension at 1:1, or mixing the 20 mg/mL compound A suspension and the 20 mg/mL lapatinib suspension at 1:1.
MDA-MB-453 was obtained from ATCC. […] The collected cells were suspended in serum-free RPMI 1640 medium at 1.0×10^8 cells/mL.
5-week-old female NOD-SCID mice (NOD.CB17-Prkdcscid/J, produced by Charles River Japan Co., Ltd.) were used. The female NOD-SCID mice were bred in the same manner as in Example 36. The cell suspension was inoculated at 2×10^7 cells/body into the subcutaneous space of the right axillary region of the 6-week-old NOD-SCID mice, and the mice were grouped in the same manner as in Example 36 using the tumor volume as an index.
The administration was started on the next day of the grouping (Day 2), and compound A and lapatinib were orally administered once a day for 28 consecutive days. Each group (N=8) was treated as follows. • (1) Control (solvent control) group: 1% hypromellose solution • (2) Compound A (30 mg/kg) treated group: 30 mg/kg of compound A (oral administration once a day for 28 consecutive days) • (3) Compound A (100 mg/kg) treated group: 100 mg/kg of compound A (oral administration once a day for 28 consecutive days) • (4) Lapatinib (100 mg/kg) treated group: 100 mg/kg of lapatinib (oral administration once a day for 28 consecutive days) • (5) Combination group 1: 30 mg/kg of compound A (oral administration once a day for 28 consecutive days)+100 mg/kg of lapatinib (oral administration once a day for 28 consecutive days) • (6) Combination group 2: 100 mg/kg of compound A (oral administration once a day for 28 consecutive days)+100 mg/kg of lapatinib (oral administration once a day for 28 consecutive days)

[9] = tested on: human acute myelogenous leukemia (AML) cell line KG-1; assay type: in vivo; remark: listed apart in the source
[10] = tested on: human diffuse large B-cell lymphoma cell line OCI-Ly7; assay type: in vivo; remark: listed apart in the source
[11] = compound A 10 mg/kg orally once a day for 14 days
[12] = compound A 30 mg/kg orally once a day for 14 days
[13] = compound A 100 mg/kg orally once a day for 14 days
[14] = compound A 30 mg/kg orally once a day for 21 days, relative tumor volume 600%
[15] = compound A 30 mg/kg orally once a day for 28 days
[16] = compound A 100 mg/kg orally once a day for 28 days

For `CNc1ccc(Oc2ccc(NC(=O)c3ccc(C(F)(F)F)cc3)cn2)c(C)c1.Cl` [Compound A, N-{6-[2-methyl-4-(methylamino)phenoxy]pyridin-3-yl}-4-(trifluoromethyl)benzamide hydrochloride], the “effectiveness of monotherapy (tumor growth delay)” value (“effectiveness of monotherapy” for short) ([1]; 30 or 100 mg/kg of compound A, 50 mg/kg of cyclophosphamide) was “effective”, the “Median Time (time for relative tumor volume to reach 1600%)” value [1, 11] was 13.2 days and the Tumor growth delay [1, 11] was 0.5 days. For the same molecule, the “Tumor growth delay rate” value [1, 11] was 3.5%, the “Median Time (time for relative tumor volume to reach 1600%)” value [1, 12] was 23.0 days and the Tumor growth delay [1, 12] was 10.3 days. For the same molecule, the “Median Time (time for relative tumor volume to reach 1600%)” value [1, 13] was 31.5 days, the Tumor growth delay [1, 13] was 18.8 days and the “Tumor growth delay rate” value [1, 13] was 147.6%. For the same molecule, the “antitumor effect on KG-1 tumor (monotherapy)” value ([2]; compound A 30 mg/kg, decitabine 1 mg/kg) was “antitumor effect”, the “T/C (ratio of relative tumor volume of treated group to control group)” value ([2]; compound A monotherapy 30 mg/kg orally, daily, 21 days, Day 23) was 45.2% and the “FIC (fractional inhibitory concentration)” value ([3]; bendamustine fixed at 0 nM, compound A at its IC50) was 1. For the same molecule, the “FIC (fractional inhibitory concentration)” value ([3]; bendamustine fixed at 1250 nM, compound A at its IC50) was 0.595, the “FIC (fractional inhibitory concentration)” value ([3]; bendamustine fixed at 2500 nM, compound A at its IC50) was 0.258 and the “FIC (fractional inhibitory concentration)” value ([3]; bendamustine fixed at 5000 nM, compound A at its IC50) was 0.123. The “FIC (fractional inhibitory concentration)” value ([3]; compound A fixed at 0 nM, bendamustine at its IC50) was 0, the “FIC (fractional inhibitory concentration)” value ([3]; compound A fixed at 39.1 nM, bendamustine at its IC50) was 0.103 and the “FIC (fractional inhibitory concentration)” value ([3]; compound A fixed at 78.1 nM, bendamustine at its IC50) was 0.205. For the same molecule, the “FIC (fractional inhibitory concentration)” value ([3]; compound A fixed at 156.3 nM, bendamustine at its IC50) was 0.410, the “FIC (fractional inhibitory concentration)” value ([3]; compound A fixed at 312.5 nM, bendamustine at its IC50) was 0.820 and the “antitumor effect on KG-1 tumor (monotherapy)” value ([4]; compound A 30 mg/kg, cytarabine 50 mg/kg) was “antitumor effect”. For the same molecule, the “T/C (ratio of relative tumor volume of treated group to control group)” value ([4]; compound A monotherapy 30 mg/kg orally, daily, 14 days, Day 16) was 52.0%, the “Cell viability (ratio relative to the drug-free control)” value ([5]; compound A 0.25 nM, OCI-Ly7, 8000 cells/well) was 0.79 and the “Cell viability (ratio relative to the drug-free control)” value ([5]; compound A 0.5 nM, OCI-Ly7) was 0.76. The “Cell viability (ratio relative to the drug-free control)” value ([5]; compound A 1 nM, OCI-Ly7) was 0.61, the “Cell viability (ratio relative to the drug-free control)” value ([5]; compound A 2 nM, OCI-Ly7) was 0.50 and the “effectiveness (tumor growth delay)” value [6] was “effective”. The “Median Time (time for relative tumor volume to reach 800%)” value ([6]; po, 30 mg/kg) was 18.2 days, the Tumor growth delay ([6]; po, 30 mg/kg) was 8.3 days and the “Tumor growth delay rate” value ([6]; po, 30 mg/kg) was 83.8%. For the same molecule, the “effectiveness of monotherapy” value ([7]; 30 mg/kg of compound A, 10 mg/kg of rituximab) was “effective”, the “Median Time (time for relative tumor volume to reach 600%)” value ([7]; compound A 30 mg/kg orally once a day for 21 days) was 28.4 days and the Tumor growth delay [7, 14] was 12.1 days. For the same molecule, the “Tumor growth delay rate” value [7, 14] was 73.9%, the “effectiveness of monotherapy” value ([8]; 30 or 100 mg/kg of compound A, 100 mg/kg of lapatinib) was “effective” and the “Median Time (time for relative tumor volume to reach 200%)” value [8, 15] was 39.3 days. The Tumor growth delay [8, 15] was 16.5 days, the “Tumor growth delay rate” value [8, 15] was 72.4% and the “Median Time (time for relative tumor volume to reach 200%)” value [8, 16] was >99.0 days. The Tumor growth delay [8, 16] was >76.2 days, the “Tumor growth delay rate” value ([8]; compound A 100 mg/kg orally once a day for 28 days, hydrochloride, 100 mg/kg) was >334.2% and the “Tumor growth delay rate” value ([8]; compound A 100 mg/kg orally once a day for 28 days, listed as compound A, hydrochloride, 100 mg/kg) was > 334.2%. The “antitumor effect on KG-1 tumor” value ([9]; compound A 50 mg/kg, venetoclax 50 mg/kg + decitabine 1 mg/kg) was “antitumor effect”, the “T/C (ratio of relative tumor volume of treated group to control group)” value ([9]; compound A single administration 50 mg/kg orally, daily, 14 days, Day 16) was 29.2% and the “effectiveness of monotherapy” value ([10]; 30 mg/kg of compound A, 15 mg/kg of bendamustine) was “effective”. The “Median Time (time for relative tumor volume to reach 1600%)” value [10, 12] was 23.9 days and the Tumor growth delay ([10]; compound A 30 mg/kg orally once a day for 14 days, relative tumor volume 1600%) was 8.4 days.
